Where two headings read alike, the source gives them in different places.

The values that follow come from patent US20230131899A1, “INHIBITORS OF MICROBIALLY INDUCED AMYLOID” (Axial Therapeutics, Inc., priority 2020, published 2023).

In the experiment the target is T1, E. coli CsgA (Escherichia coli, UniProt P28307).
T1 construct: made in house; host or cells: E. coli NEB 3016 slyD::kan, pET11d
In words: In vitro ThioflavinT assay of CsgA aggregation (CsgA ThT Assay). The conditions noted are these: for remaining activity at 25 µM: compound 25 μM. The experiment is classed as biochemical. An outline of the steps:
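Purified C-terminal His-tagged CsgA, monomerised by desalting and 30-kDa filtration, at 2-20 μM with 20-40 μM ThT in 50 mM potassium phosphate pH 7.3, 1% DMSO, compounds 3.125-200 uM; room temperature, fluorescence (ex 438/em 495 nm) read every 15 min. Background-subtracted signal expressed as percent inhibition versus vehicle at 6-6.5 or 8-9 h, or as percent control AUC.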

Setting [1] is: read-out: CsgA ThT Assay (2 μM CsgA) % Control Bmax 25 μM, activity range, class symbol, CsgA 2 μM, white plates.
Where [2] appears, read: read-out: CsgA ThT Assay (2 μM CsgA) % Control Bmax 25 μM, mean Bmax as percentage of DMSO control, CsgA 2 μM, white plates.
[3] abbreviates: read-out: CsgA ThT Assay (2 μM CsgA) % Control Bmax 100 μM, activity range, class symbol, CsgA 2 μM, white plates, compound 100 μM.
Where [4] appears, read: read-out: CsgA ThT Assay (2 μM CsgA) % Control Bmax 100 μM, mean Bmax as percentage of DMSO control, CsgA 2 μM, white plates, compound 100 μM.
Setting [5] is: read-out: CsgA ThT Assay (10 μM CsgA) % Control AUC at 1005 minutes, 25 μM (activity range), CsgA 10 μM, black plates, 1005 minutes, class symbol.
[6] abbreviates: read-out: CsgA ThT Assay (10 μM CsgA) % Control AUC at 1005 minutes, 25 μM, mean AUC as % of DMSO control, CsgA 10 μM, black plates, 1005 minutes.
[7] abbreviates: read-out: CsgA ThT Assay (10 μM CsgA) % Control AUC at 1005 minutes, 100 μM (activity range), CsgA 10 μM, black plates, compound 100 μM, 1005 minutes, class symbol.

T1 sequence (P28307 23-151): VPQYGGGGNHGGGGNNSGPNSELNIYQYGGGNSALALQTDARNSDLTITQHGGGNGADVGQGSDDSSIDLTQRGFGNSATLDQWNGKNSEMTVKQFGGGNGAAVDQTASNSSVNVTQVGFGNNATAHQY

With `O=C(O)C1CN(CC2CCCCC2)c2c(-c3cccc(C(F)(F)F)c3)c(Cc3cccc4ccccc34)c(Cl)c(=O)n21` (stereo not shown) [Compound 180, 6-chloro-1-(cyclohexylmethyl)-7-(naphthalen-1-ylmethyl)-5-oxo-8-(3-(trifluoromethyl)phenyl)-1,2,3,5-tetrahydroimidazo[1,2-a]pyridine-3-carboxylic acid], the remaining activity at 25 µM under setting [1] was above 60% and the remaining activity at 25 µM under setting [2] was found to be 65%. Further, the remaining activity at 100 µM is 11 to 31% under setting [3] and 21% under setting [4].

For `CCCCN1CC(C(=O)O)n2c(c(-c3cccc(C(F)(F)F)c3)c(Cc3cccc4ccccc34)c(C(N)=O)c2=O)S1(=O)=O` (stereo not shown) [Compound 177, 2-butyl-7-carbamoyl-8-(naphthalen-1-ylmethyl)-6-oxo-9-(3-(trifluoromethyl)phenyl)-3,4-dihydro-2H,6H-pyrido[1,2-e][1,2,5]thiadiazine-4-carboxylic acid 1,1-dioxide], the remaining activity at 25 µM reads like this: under setting [1], 31 to 60%; under setting [2], 32%. Further, the remaining activity at 100 µM under setting [3] lay in the range of 11 to 31% and the remaining activity at 100 µM under setting [4] was determined as 21%.

As to `NC(=O)c1c(Cc2cccc3ccccc23)c(-c2cccc(C(F)(F)F)c2)c2n(c1=O)C(C(=O)O)CN(C1CCCC1)S2(=O)=O` (stereo not shown) [Compound 176, 7-carbamoyl-2-cyclopentyl-8-(naphthalen-1-ylmethyl)-6-oxo-9-(3-(trifluoromethyl)phenyl)-3,4-dihydro-2H,6H-pyrido[1,2-e][1,2,5]thiadiazine-4-carboxylic acid 1,1-dioxide], the remaining activity at 25 µM was 11 to 31% under setting [1] and 25% under setting [2]. Besides, the remaining activity at 100 µM reads like this: under setting [3], 11 to 31%; under setting [4], 24%.

As to `N#Cc1cccc(CN2CC(C(=O)O)n3c2c(-c2cccc(C(F)(F)F)c2)c(Cc2cccc4ccccc24)c(Cl)c3=O)c1` (stereo not shown) [Compound 168, 6-chloro-1-(3-cyanobenzyl)-7-(naphthalen-1-ylmethyl)-5-oxo-8-(3-(trifluoromethyl)phenyl)-1,2,3,5-tetrahydroimidazo[1,2-a]pyridine-3-carboxylic acid], the remaining activity at 25 µM under setting [1] was above 60% and the remaining activity at 25 µM under setting [2] is 76%. In addition, the remaining activity at 100 µM is, setting by setting: under setting [3], 31 to 60%; under setting [4], 47%.

Take `CCCCCN1CC(C(=O)O)n2c(c(-c3cccc(C(F)(F)F)c3)c(Cc3cccc4ccccc34)cc2=O)S1(=O)=O` (single isomer, unassigned) [Compound 025a, 8-(naphthalen-1-ylmethyl)-6-oxo-2-pentyl-9-(3-(trifluoromethyl)phenyl)-3,4-dihydro-2H,6H-pyrido[1,2-e][1,2,5]thiadiazine-4-carboxylic acid 1,1-dioxide]: the “CsgA ThT Assay (10 μM CsgA) % Control AUC at 1005 minutes, 100 μM” value (mean AUC as % of DMSO control, CsgA 10 μM, black plates, compound 100 μM, 1005 minutes) amounted to 143%. The remaining activity at 25 µM runs as follows: under setting [5], 31 to 60%; under setting [6], 38%. Under setting [7], the remaining activity at 100 µM was above 60%.

As for `O=C(O)C1CN(C[C@H](O)CO)S(=O)(=O)c2c(-c3cccc(C(F)(F)F)c3)c(Cc3cccc4ccccc34)cc(=O)n21` (stereo partly drawn) [Compound 065a, 2-((S)-2,3-dihydroxypropyl)-8-(naphthalen-1-ylmethyl)-6-oxo-9-(3-(trifluoromethyl)phenyl)-3,4-dihydro-2H,6H-pyrido[1,2-e][1,2,5]thiadiazine-4-carboxylic acid 1,1-dioxide], the remaining activity at 25 µM runs as follows: under setting [5], above 60%; under setting [6], 65%. In addition, the remaining activity at 100 µM reads like this: under setting [7], 11 to 31%; (read-out: CsgA ThT Assay (10 μM CsgA) % Control AUC at 1005 minutes, 100 μM, mean AUC as % of DMSO control, CsgA 10 μM, black plates, compound 100 μM, 1005 minutes) 18%.

In the case of `CCCCN1CC(C(=O)O)n2c1c(-c1cccc(C(F)(F)F)c1)c(Cc1cccc3ccccc13)c(Cl)c2=O` (stereo not shown) [Compound 163, 1-butyl-6-chloro-7-(naphthalen-1-ylmethyl)-5-oxo-8-(3-(trifluoromethyl)phenyl)-1,2,3,5-tetrahydroimidazo[1,2-a]pyridine-3-carboxylic acid], the remaining activity at 25 µM is, setting by setting: under setting [1], 31 to 60%; under setting [2], 33%. The remaining activity at 100 µM is 31 to 60% under setting [3] and 42% under setting [4].
